Columns and labels:
[1] = tested on: 1A9; assay: In vitro cytotoxicity against parental and drug resistant ovarian human tumor cell line IA9; format: functional, cell-based
[2] = tested on: SK-MEL-2; assay: In vitro cytotoxicity against parental and drug resistant melanoma human tumor cell line SK-MEL-2; format: functional, cell-based
[3] = tested on: KB; assay: In vitro cytotoxicity against parental and drug resistant vincristine resistant human tumor cell line KB-VIN; format: functional, cell-based
[4] = tested on: MCF7; assay: In vitro cytotoxicity against parental and drug resistant breast human tumor cell line MCF-7; format: functional, cell-based
[5] = tested on: KB; assay: In vitro cytotoxicity against parental and drug resistant etoposide resistant human tumor cell line KB-7d; format: functional, cell-based
[6] = tested on: A549; assay: In vitro cytotoxicity against parental and drug resistant lung human tumor cell line A549; format: functional, cell-based
[7] = tested on: HCT-8; assay: In vitro cytotoxicity against parental and drug resistant ileococal human tumor cell line HCT-8; format: functional, cell-based
[8] = tested on: HOS; assay: In vitro cytotoxicity against parental and drug resistant bone human tumor cell line HOS; format: functional, cell-based
[9] = tested on: KB; assay: In vitro cytotoxicity against parental and drug resistant nasopharyngeal human tumor cell line KB; format: functional, cell-based
[10] = tested on: CAKI-1; assay: In vitro cytotoxicity against parental and drug resistant kidney human tumor cell line CAKI; format: functional, cell-based
[11] = tested on: 1A9/ptx-10; assay: In vitro cytotoxicity against parental and drug resistant paclitaxel human tumor cell line IA9-PTX10; format: functional, cell-based
[12] = tested on: KB; assay: In vitro cytotoxicity against parental and drug resistant camptothecin resistant human tumor cell line KB-CPT; format: functional, cell-based
[13] = tested on: U-87 MG; assay: In vitro cytotoxicity against parental and drug resistant glioblastoma human tumor cell line U87MG; format: functional, cell-based, U-87MG ATCC
[14] = tested on: KB; assay: In vitro cytotoxicity against parental and drug resistant camptothecin resistant human tumor cell line KB-CPT; Not active at 10 uM; format: functional, cell-based
[15] = tested on: U-87 MG; assay: In vitro cytotoxicity against parental and drug resistant glioblastoma human tumor cell line U87MG; Not active at 10 uM; format: functional, cell-based; conditions: u-87mg atcc
[16] = tested on: A549; assay: Percentage inhibition against parental and drug resistant lung human tumor cell line A549 at 10 uM; format: functional
[17] = tested on: HOS; assay: In vitro cytotoxicity against parental and drug resistant bone human tumor cell line HOS; Not active at 10 uM; format: functional, cell-based
[18] = tested on: CAKI-1; assay: In vitro cytotoxicity against parental and drug resistant kidney human tumor cell line CAKI; Not active at 10 uM; format: functional, cell-based
[19] = tested on: 1A9; assay: In vitro cytotoxicity against parental and drug resistant ovarian human tumor cell line IA9; Not active at 10 uM; format: functional, cell-based
[20] = tested on: KB; assay: Tested for cytotoxicity against parental and drug resistant etoposide resistant human tumor cell line KB-7d; format: functional, cell-based
[21] = tested on: HCT-8; assay: In vitro cytotoxicity against parental and drug resistant ileococal human tumor cell line HCT-8; Not active at 10 uM; format: functional, cell-based
[22] = tested on: MCF7; assay: In vitro cytotoxicity against parental and drug resistant breast human tumor cell line MCF-7 at 10 uM; format: functional
[23] = tested on: 1A9/ptx-10; assay: In vitro cytotoxicity against parental and drug resistant paclitaxel human tumor cell line IA9-PTX10; Not active at 10 uM; format: functional, cell-based
[24] = tested on: KB; assay: Percentage inhibition against parental and drug resistant nasopharyngeal human tumor cell line KB at 10 uM; format: functional
[25] = tested on: KB; assay: Percentage inhibition against parental and drug resistant vincristine resistant human tumor cell line KB-VIN at 10 uM; format: functional
[26] = tested on: SK-MEL-2; assay: Percentage inhibition against parental and drug resistant melanoma human tumor cell line SK-MEL-2 at 10 uM; format: functional
[27] = tested on: KB; assay: Percentage inhibition against parental and drug resistant etoposide resistant human tumor cell line KB-7d at 10 uM; format: functional

Structure (SMILES)	IC50 [1] [nM]	IC50 [2] [nM]	IC50 [3] [nM]	IC50 [4] [nM]	IC50 [5] [nM]	IC50 [6] [nM]	IC50 [7] [nM]	IC50 [8] [nM]	IC50 [9] [nM]	IC50 [10] [nM]	IC50 [11] [nM]	IC50 [12] [nM]	IC50 [13] [nM]	also measured
C=C/C(C)=C/C[C@@]1(C)[C@@H](C)C[C@@H](O)C23C(=C[C@@H](OC(=O)C(C)C)C[C@@H]21)[C@H](OC(C)=O)O[C@@H]3OC(C)=O (stereo partly drawn)	500	700	1100	900	800	500	900	800	900	1100	500	800	1000	–
C=C/C(C)=C/C[C@@]1(C)[C@@H](C)CC[C@]2(COC(C)=O)C(COC(C)=O)=CC(=O)C[C@@H]21	–	> 10000	> 10000	> 10000	–	> 10000	–	–	> 10000	–	–	–	–	IC50 [14]: Not Active; IC50 [15]: Not Active; inhibition at 10 µM [16]: 6%; IC50 [17]: Not Active; IC50 [18]: Not Active; IC50 [19]: Not Active; IC50 [20]: > 10000 nM; IC50 [21]: Not Active; inhibition at 10 µM [22]: 12%; IC50 [23]: Not Active; inhibition at 10 µM [24]: 7%; inhibition at 10 µM [25]: 22%; inhibition at 10 µM [26]: 7%; inhibition at 10 µM [27]: 23%
C=C/C(C)=C/C[C@@]1(C)[C@@H](C)CCC23C(=C[C@@H](OC(=O)C(C)C)C[C@@H]21)[C@H](OC(C)=O)O[C@@H]3OC(C)=O (stereo partly drawn)	600	1000	1000	1100	900	1100	1000	900	900	1800	500	900	1200	–
C=C/C(C)=C/C[C@]1(C)[C@H]2C[C@H](OC(=O)C(C)CC)C=C3[C@H](OC(C)=O)O[C@H](OC(C)=O)[C@@]32[C@H](O)C[C@@H]1C (stereo partly drawn) [CASEARLUCIN A]	1000	1000	1200	1800	1100	1100	1300	1200	1100	1900	1100	1100	1400	–

— ChEMBL document CHEMBL1135030, “Antitumor agents. Part 212. Bucidarasins A-C, three new cytotoxic clerodane diterpenes from Bucida buceras” (Bioorg Med Chem Lett, 2002)
